Experimental findings from patent US8476264B2, “N-(3-(2-amino-6,6-difluoro-4,4A,5,6,7,7A-hexahydro-cyclopenta[E][1,3]oxazin-4-yl)-phenylamides as BACE1 inhibitors” (Hoffmann-La Roche Inc., priority 2011, dated 2013) are described below.

One series addresses T1, CYP2D6 (Homo sapiens, UniProt P10635).
T1 construct: 0.2 mg/ml pooled human liver microsomes; from tissue; host or cells: pooled human liver microsomes
Put plainly: CYP inhibition assay, CYP2D6. It counts as in vitro ADME. The following applies: human liver microsomes, dextromethorphan O-demethylase; read-out: CYP IC50 2D6. As for the experimental part:
(§1) Inhibition of cytochromes P450 (CYPs) 2C9, 2D6 and 3A4 was assessed using human liver microsomes and CYP-selective substrate metabolism reactions. 50 μl incubations were made up containing (finally) 0.2 mg/ml pooled human liver microsomes, 5 μM substrate (diclofenac for CYP2C9 [4′ hydroxylase], dextromethorphan for CYP2D6 [O-demethylase] or midazolam for CYP3A4 [1′ hydroxylase]), 0.25 μL DMSO containing test inhibitor and NADPH regenerating system. Test inhibitor concentrations of 50, 16.7, 5.6, 1.9, 0.6 and 0.2 μM were assessed in singlicate. Incubations were pre-warmed to 37° C. for 10 minutes before initiation by addition of NADPH regenerating system. Incubations were quenched after 5 minutes (20 minutes for dextromethorphan) by addition of 50 μl cold acetonitrile containing 20 ng/ml 4-OH-diclofenac-13C6, 20 ng/mL dextrorphan-D3 and 20 ng/mL 1-OH-midazolam-D4. Quenched incubates were stored at −20° C. for at least 1 hour before centrifugation (20,000×g, 20 minutes). Supernatants were removed and diluted 1:1 with water prior to analysis using a RapidFire sample injector system and API4000 mass spectrometer. Peak areas for substrate, metabolite and stable-labelled metabolite standard were determined using MS/MS. The peak area ratios between the metabolite generated by the enzymatic reaction and the internal standard were used in subsequent calculations. The percentage of (DMSO) control activity was calculated for each incubate and IC50 values estimated by non-linear regression. Sulfaphenazole, quinidine or ketoconazole were tested in each CYP2C9, CYP2D6 or CYP3A4 inhibition experiment, respectively, to ensure assay sensitivity and reproducibility. (Validated assays for human cytochrome P450 activities, R. L. Walsky and R. S. Obach, Drug Metabolism and Disposition 32: 647-660, 2004. and S. Fowler and H. Zhang, The AAPS Journal, Vol. 10, No. 2, 410-424, 2008.)

The next series concerns the target T2, BACE1 (Homo sapiens, UniProt P56817).
T2 construct: Human HEK293 cells which are stably transfected with a vector expressing a cDNA of the human APP wt gene (APP695); endogenous in cells; host or cells: HEK293 stably transfected with human APP695 wt
Put plainly: Cellular Aβ-lowering assay (Aβ40 ELISA). It counts as cell-based. The following applies: HEK293 cells stably expressing human APP wt (APP695); Aβ40 in supernatant after 18-20 hrs; read-out: BACE1 cell act. Aβ40 IC50. As for the experimental part: Cellular Aβ-Lowering Assay:
Human HEK293 cells which are stably transfected with a vector expressing a cDNA of the human APP wt gene (APP695) were used to assess the potency of the compounds in a cellular assay. The cells were seeded in 96-well microtiter plates in cell culture medium (Iscove, plus 10% (v/v) fetal bovine serum, glutamine, penicillin/streptomycin) to about 80% confluence and the compounds were added at a 10× concentration in 1/10 volume of medium without FCS containing 8% DMSO (final concentration of DMSO was kept at 0.8% v/v). After 18-20 hrs incubation at 37° C. and 5% CO2 in a humidified incubator the culture supernatant was harvested for the determination of Aβ40 concentrations. 96 well ELISA plates (e.g., Nunc MaxiSorb) were coated with monoclonal antibody which specifically recognize the C-terminal end of Aβ40 (Brockhaus et al., NeuroReport 9, 1481-1486; 1998). After blocking of non-specific binding sites with e.g. 1% BSA and washing, the culture supernatants were added in suitable dilutions together with a horseradish peroxidase-coupled Aβ detection antibody (e.g., antibody 4G8, Senetek, Maryland Heights, Mo.) and incubated for 5 to 7 hrs. Subsequently the wells of the microtiter plate were washed extensively with Tris-buffered saline containing 0.05% Tween 20 and the assay was developed with tetramethylbenzidine/H2O2 in citric acid buffer. After stopping the reaction with one volume 1 N H2SO4 the reaction was measured in an ELISA reader at 450 nm wavelength. The concentrations of Aβ in the culture supernatants were calculated from a standard curve obtained with known amounts of pure Aβ peptide.

Series [1] deals with T3, cathepsin D (from human liver) (Homo sapiens, UniProt P07339).
T3 construct: cathepsin D (from human liver, Calbiochem) diluted in assay buffer; purchased Calbiochem; host or cells: purified from human liver
Put plainly: Cathepsin D fluorescent substrate kinetic assay. It counts as biochemical. The following applies: pH 5.5, substrate […]-MR121. From the text:
(§2) Cathepsin D and Cathepsin E Fluorescent Substrate Kinetic Assays
(§3) The MR121 fluorescence assays described below are based on the fact that MR121 forms a non-fluorescent ground state complex with tryptophan. In solution this formation occurs at millimolar concentrations of tryptophan. The mechanism can be used to design a generic biochemical assay for proteases. A substrate peptide is labeled at the N-terminus with tryptophan and at the C-terminus with the fluorophore MR121 (for cathepsin D the 10 amino acid peptide […]-MR121 was used; for cathepsin E, MR121-[…] was used). In absence of protease activity, the substrates remain intact and the MR121 fluorescence is reduced by the high local Trp-concentration. If the substrates are cleaved by the enzymes the MR121 fluorescence is recovered.
(§4) The fluorescent substrate cathepsin D and cathepsin E kinetic assays were performed at room temperature in 384-well microtiter plates (black with clear flat bottom, non binding surface plates from Corning) in a final volume of 51 μl. The test compounds were serially diluted in DMSO (15 concentrations, ⅓ dilution steps) and 1 μl of diluted compounds were mixed for 10 min with 40 μl of cathepsin D (from human liver, Calbiochem) diluted in assay buffer (100 mM sodium acetate, 0.05% BSA, pH 5.5; final concentration: 200 nM) or with 40 μl of recombinant human cathepsin E (R&D Systems) diluted in assay buffer (100 mM sodium acetate, 0.05% BSA, pH 4.5; final concentration: 0.01 nM). After addition of 10 μl of the cathepsin D substrate […]-MR121 diluted in cathepsin D assay buffer (final concentration: 300 nM) or […] cathepsin E substrate MR121-[…] diluted in cathepsin E assay buffer (final concentration: 300 nM), the plates were strongly shaken for 2 minutes. The enzymatic reaction was followed in a plate: vision reader (Perkin Elmer) (excitation wavelength: 630 nm; emission: 695 nm) for at least 30 minutes in a kinetic measurement detecting an increase of MR121 fluorescence during the reaction time. The slope in the linear range of the kinetic was calculated and the IC50 of the test compounds were determined using a four parameter equation for curve fitting.

A further series concerns the target T4, CYP2C9 (Homo sapiens, UniProt P11712).
T4 construct: 0.2 mg/ml pooled human liver microsomes; from tissue; host or cells: pooled human liver microsomes
Nature of the series: CYP inhibition assay, CYP2C9. It counts as in vitro ADME. The settings on record: human liver microsomes, diclofenac 4' hydroxylase; read-out: CYP IC50 2C9. As for the experimental part: as §1

Series [2] has as its target T5, recombinant human cathepsin E (Homo sapiens, UniProt P14091).
T5 construct: purchased R&D Systems
T5 sequence (P14091 54-396): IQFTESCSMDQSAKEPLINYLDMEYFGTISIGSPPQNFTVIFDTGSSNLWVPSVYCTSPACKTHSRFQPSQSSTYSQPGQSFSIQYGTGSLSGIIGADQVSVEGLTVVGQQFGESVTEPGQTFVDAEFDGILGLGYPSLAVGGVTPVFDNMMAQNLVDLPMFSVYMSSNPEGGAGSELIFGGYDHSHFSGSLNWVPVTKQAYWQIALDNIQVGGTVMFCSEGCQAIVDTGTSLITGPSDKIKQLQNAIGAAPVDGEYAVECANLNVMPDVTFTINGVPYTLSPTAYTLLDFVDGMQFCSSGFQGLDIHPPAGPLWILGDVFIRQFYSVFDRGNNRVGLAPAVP
Nature of the series: Cathepsin E fluorescent substrate kinetic assay. The settings on record: pH 4.5, substrate MR121-[…]. It counts as biochemical.
Source text: as §2, §3, §4

The nature of another series: in vivo effect. The following applies: % of control @ 30 mg/kg p.o.
For a further series, the target named is T6, CYP3A4 (Homo sapiens, UniProt P08684).
T6 construct: 0.2 mg/ml pooled human liver microsomes; from tissue; host or cells: pooled human liver microsomes
Put plainly: CYP inhibition assay, CYP3A4. It counts as in vitro ADME. The following applies: human liver microsomes, midazolam 1' hydroxylase; read-out: CYP IC50 3A4. As for the experimental part: as §1

The nature of series [3]: Detection of glutathione conjugates. Also on record: key: NF: in vitro no significant adduct formation relative to control. It counts as in vitro ADME, human. The following applies: in vitro, relative to control. The source says: Detection of Glutathione Conjugates
The assay conditions for the detection of glutathione conjugates follow the procedure described by C. M. Dieckhaus et al.

Another series deals with T7, hERG channel (Homo sapiens, UniProt Q12809).
T7 construct: expressed in transfected cells; host or cells: CHO cells
Put plainly: PatchXpress hERG inhibition assay. It counts as cell-based. The following applies: @ 1 μM; CHO cells transfected with hERG, automated patch clamp. As for the experimental part:
PatchXpress hERG Inhibition Assay
The detailed method to quantify hERG channel inhibition by the automated patch clamp system PatchXpress® 7000A (Molecular Devices, Sunnyvale, Calif.) has been described by Guo et al. (J of Pharmacol & Tox Methods, (2005) 52(1):123-35). In brief, Chinese hamster ovary (CHO) cells transfected with the human ether-a-go-go-related gene (hERG) was cultured in Ex-cell 302 media supplemented with 10% fetal bovine serum, 2 mM glutamine and 0.25 mg/ml geneticin and maintained in a CO2 incubator at 37° C. For patch clamp electrophysiology, the external buffer contained (in mM): 150 NaCl, 10 Hepes, 4 KCl, 1.2 CaCl2, 1 MgCl2, pH 7.4 adjusted with […] and the internal recording solution contained (in mM): 140 KCl, 6 EGTA, 5 Hepes, MgCl2, 5 ATP-Na2, pH 7.2 adjusted with KOH. Once the cell was loaded in the recording chamber and formed a giga ohm seal with the planar glass electrodes (Sealchip™), a whole-cell configuration was achieved by rupturing the cell membrane. The membrane potential was then clamped at −80 mV and the hERG channel activated by a 1-second depolarizing pulse delivered at 0.1 Hz, the hERG current was measured during the 500 ms-repolarizing pulse to −40 mV. After an acceptable hERG current recording was obtained, the cell was first exposed to 0.3% DMSO as the vehicle control, followed by the test article in three ascending, full-log interval concentrations and finally E-4031 at 1 μM (as the positive control) to block the hERG current completely. […] The inhibition of hERG current at each concentration was normalized to that recorded in the vehicle control, and fitted with Hill equation to calculate IC20 and/or IC50.

T1 sequence (P10635 whole entry): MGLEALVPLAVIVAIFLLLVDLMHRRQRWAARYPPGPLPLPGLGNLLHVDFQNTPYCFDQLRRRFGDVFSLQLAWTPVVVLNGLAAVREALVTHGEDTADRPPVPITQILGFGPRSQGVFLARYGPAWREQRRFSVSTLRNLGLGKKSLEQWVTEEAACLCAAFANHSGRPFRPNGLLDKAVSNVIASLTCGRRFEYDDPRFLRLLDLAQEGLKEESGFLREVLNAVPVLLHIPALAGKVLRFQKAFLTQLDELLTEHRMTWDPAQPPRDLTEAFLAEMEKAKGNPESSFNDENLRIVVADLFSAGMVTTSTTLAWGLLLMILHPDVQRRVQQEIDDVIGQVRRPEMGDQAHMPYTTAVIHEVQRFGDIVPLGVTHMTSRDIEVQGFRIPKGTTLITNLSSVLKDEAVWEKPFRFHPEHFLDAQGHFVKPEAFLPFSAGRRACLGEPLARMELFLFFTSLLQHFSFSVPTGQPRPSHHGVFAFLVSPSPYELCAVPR
T3 sequence (P07339 65-162 limits assumed): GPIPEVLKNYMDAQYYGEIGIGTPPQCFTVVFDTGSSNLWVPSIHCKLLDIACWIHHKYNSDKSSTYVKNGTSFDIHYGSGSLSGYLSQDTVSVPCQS
T3 sequence (P07339 169-412 limits assumed): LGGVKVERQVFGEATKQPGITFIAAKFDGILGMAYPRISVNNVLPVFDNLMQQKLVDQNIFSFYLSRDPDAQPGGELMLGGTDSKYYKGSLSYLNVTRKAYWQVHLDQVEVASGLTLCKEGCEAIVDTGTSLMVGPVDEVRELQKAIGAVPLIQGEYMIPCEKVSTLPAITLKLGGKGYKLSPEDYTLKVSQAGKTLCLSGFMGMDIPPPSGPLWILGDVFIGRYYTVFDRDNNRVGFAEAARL
T6 sequence (P08684 whole entry): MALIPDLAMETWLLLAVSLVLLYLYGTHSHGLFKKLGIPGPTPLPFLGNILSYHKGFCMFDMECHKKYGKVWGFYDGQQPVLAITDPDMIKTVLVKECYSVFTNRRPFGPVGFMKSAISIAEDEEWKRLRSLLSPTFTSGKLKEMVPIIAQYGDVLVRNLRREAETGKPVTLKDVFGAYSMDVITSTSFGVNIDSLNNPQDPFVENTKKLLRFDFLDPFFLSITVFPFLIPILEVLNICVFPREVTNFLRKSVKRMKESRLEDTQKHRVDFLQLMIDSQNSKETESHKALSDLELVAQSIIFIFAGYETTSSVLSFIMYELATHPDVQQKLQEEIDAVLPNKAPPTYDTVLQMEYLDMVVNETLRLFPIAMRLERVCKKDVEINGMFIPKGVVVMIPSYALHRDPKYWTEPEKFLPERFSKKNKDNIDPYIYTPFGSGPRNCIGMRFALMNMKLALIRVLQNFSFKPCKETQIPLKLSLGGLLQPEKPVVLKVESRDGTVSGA
T4 sequence (P11712 whole entry): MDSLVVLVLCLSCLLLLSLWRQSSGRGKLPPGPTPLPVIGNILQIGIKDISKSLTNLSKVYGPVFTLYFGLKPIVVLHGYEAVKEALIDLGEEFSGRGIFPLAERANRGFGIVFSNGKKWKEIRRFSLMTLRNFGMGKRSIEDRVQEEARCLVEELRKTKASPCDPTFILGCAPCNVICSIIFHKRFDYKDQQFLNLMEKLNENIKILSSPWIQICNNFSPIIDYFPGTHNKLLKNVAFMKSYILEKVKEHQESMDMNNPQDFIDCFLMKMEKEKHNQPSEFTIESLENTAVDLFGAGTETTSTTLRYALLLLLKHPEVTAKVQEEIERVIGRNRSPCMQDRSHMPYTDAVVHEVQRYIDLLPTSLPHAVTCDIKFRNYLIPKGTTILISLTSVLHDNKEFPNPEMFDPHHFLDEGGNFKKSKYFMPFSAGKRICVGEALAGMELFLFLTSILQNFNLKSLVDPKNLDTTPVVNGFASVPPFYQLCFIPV
T2 sequence (P56817 46-501): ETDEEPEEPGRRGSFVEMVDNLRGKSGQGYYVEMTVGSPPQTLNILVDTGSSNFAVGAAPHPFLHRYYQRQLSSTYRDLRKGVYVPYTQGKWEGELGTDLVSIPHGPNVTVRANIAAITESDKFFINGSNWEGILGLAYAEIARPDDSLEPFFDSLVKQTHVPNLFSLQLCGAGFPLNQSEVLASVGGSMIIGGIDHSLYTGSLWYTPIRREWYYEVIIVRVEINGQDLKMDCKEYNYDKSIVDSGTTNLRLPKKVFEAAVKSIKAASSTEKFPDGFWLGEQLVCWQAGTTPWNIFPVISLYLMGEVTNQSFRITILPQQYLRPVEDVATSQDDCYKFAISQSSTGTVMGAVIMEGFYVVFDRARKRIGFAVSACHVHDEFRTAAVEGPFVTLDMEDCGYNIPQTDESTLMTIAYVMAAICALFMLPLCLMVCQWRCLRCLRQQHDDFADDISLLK
T7 sequence (Q12809 whole entry): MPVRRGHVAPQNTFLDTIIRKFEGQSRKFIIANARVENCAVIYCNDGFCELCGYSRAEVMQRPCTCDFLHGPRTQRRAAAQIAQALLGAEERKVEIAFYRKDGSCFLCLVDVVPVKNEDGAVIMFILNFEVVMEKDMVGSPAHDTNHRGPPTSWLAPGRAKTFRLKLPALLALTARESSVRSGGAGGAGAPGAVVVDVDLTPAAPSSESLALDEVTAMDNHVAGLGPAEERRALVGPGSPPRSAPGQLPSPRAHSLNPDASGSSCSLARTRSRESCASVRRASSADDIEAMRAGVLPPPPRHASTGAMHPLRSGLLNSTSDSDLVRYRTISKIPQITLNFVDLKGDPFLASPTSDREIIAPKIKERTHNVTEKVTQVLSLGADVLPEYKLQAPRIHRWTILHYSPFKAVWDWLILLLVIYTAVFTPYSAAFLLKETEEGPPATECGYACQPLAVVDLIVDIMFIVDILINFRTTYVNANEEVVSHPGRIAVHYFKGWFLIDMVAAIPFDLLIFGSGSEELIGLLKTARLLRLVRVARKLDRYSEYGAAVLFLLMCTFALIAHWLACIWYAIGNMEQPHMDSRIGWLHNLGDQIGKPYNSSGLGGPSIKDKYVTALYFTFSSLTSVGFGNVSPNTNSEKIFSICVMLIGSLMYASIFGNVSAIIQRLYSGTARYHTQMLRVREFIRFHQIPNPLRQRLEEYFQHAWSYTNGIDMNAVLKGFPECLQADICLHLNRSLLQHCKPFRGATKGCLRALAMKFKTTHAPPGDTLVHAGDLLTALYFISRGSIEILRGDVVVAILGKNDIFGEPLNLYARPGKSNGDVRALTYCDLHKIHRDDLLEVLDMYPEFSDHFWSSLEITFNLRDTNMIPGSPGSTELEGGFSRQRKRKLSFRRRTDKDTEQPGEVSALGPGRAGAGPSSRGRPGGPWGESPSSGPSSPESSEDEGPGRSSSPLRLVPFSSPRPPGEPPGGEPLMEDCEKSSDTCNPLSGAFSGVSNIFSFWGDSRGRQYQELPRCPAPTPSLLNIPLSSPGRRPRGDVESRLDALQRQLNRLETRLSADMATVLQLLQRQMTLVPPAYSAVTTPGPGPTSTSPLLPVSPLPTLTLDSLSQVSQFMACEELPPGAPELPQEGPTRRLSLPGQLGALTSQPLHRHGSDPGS

Take `C[C@]1(c2cc(NC(=O)c3ccc(Cl)cn3)ccc2F)N=C(N)O[C@@H]2CC(F)(F)C[C@@H]21` [Example 1, 5-Chloro-pyridine-2-carboxylic acid [3-((4S,4aR,7aR)-2-amino-6,6-difluoro-4-methyl-4,4a,5,6,7,7a-hexahydro-cyclopenta[e][1,3]oxazin-4-yl)-4-fluoro-phenyl]-amide]: the IC50 at CYP2D6 was 1 to 10 µM; at BACE1, 0.0004 µM; in series [1], 52 µM; on CYP2C9, greater than 10 µM; in series [2], 133 µM; at CYP3A4, greater than 10 µM. Also, the in vivo effect result in the series “in vivo effect” is “A (less than 50% of control @ 30 mg/kg p.o.)”. In addition, the “GSH human (glutathione adduct formation)” value in [3] is given as “NF”.

`C[C@]1(c2cc(NC(=O)c3ccc(C#N)cn3)ccc2F)N=C(N)O[C@@H]2CC(F)(F)C[C@@H]21` [Example 2, 5-Cyano-pyridine-2-carboxylic acid [3-((4S,4aR,7aR)-2-amino-6,6-difluoro-4-methyl 4,4a,5,6,7,7a-hexahydro-cyclopenta[e][1,3]oxazin-4-yl)-4-fluoro-phenyl]-amide]: the IC50 on CYP2D6 was greater than 10 µM; in series [1] it was 120 µM; on CYP2C9, greater than 10 µM; in series [2] it was 101 µM; at CYP3A4, greater than 10 µM. Further, in “in vivo effect”, the in vivo effect entry is listed as “A (less than 50% of control @ 30 mg/kg p.o.)”. For the same molecule, the “GSH human (glutathione adduct formation)” value in series [3] is recorded as “NF”. The hERG inhibition entry on hERG channel is recorded as “A (less than 20% inhibition @ 1 μM)”.
